Results on three compounds are retold here after ChEMBL document CHEMBL1126388, “Synthesis of metabolically stable arylpiperazine 5-HT1A receptor agonists” (Bioorg Med Chem Lett, 1992).

Test [1] deals with T1, 5-hydroxytryptamine receptor 1A (Mus musculus, UniProt Q64264).
T1 sequence (Q64264 whole entry): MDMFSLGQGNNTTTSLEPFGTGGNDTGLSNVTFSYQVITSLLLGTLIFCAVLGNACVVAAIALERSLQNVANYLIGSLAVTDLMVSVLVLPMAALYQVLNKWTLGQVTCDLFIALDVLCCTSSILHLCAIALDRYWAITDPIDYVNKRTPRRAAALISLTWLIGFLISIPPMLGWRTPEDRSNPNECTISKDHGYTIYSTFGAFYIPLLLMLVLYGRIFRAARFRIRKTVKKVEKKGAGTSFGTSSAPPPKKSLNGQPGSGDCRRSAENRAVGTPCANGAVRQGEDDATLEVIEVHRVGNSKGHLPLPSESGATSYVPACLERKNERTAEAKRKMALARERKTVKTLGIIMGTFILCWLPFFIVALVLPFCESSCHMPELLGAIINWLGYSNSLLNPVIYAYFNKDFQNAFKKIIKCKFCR
Briefly: Compound was tested for binding affinity to 5-hydroxytryptamine 1A receptor using [3H]8-OH-DPAT as a radioligand.

The test system of test [2] is Mus musculus. Briefly: Effective dose required for hypothermia activity after subcutaneous administration at 1.9 degree F temp in mouse. The format is functional. The following applies: sc.
Test [3] relates to Mus musculus. The test is described as follows: Effective dose required for hypothermia activity after >120 min of oral administration at 4.0 degree F temp in mouse. The following applies: 2 h. The format is functional.
Test [4] deals with Mus musculus. Briefly: Effective dose required for hypothermia activity after subcutaneous administration at 6.4 degree F temp in mouse. The format is functional. The following applies: sc.
Test [5] has as its system Mus musculus. The test is described as follows: Effective dose required for hypothermia activity after subcutaneous administration at 3.8 degree F temp in mouse. Type of test: functional. The following applies: sc.
For test [6], the system named is Mus musculus. The test is described as follows: Effective dose required for hypothermia activity after 20 min of oral administration at 2.9 degree F temp in mouse. The format is functional.

In general, Ki refers to the equilibrium dissociation constant of an inhibitor or competing ligand from its target. Usually ED50 stands for the midpoint of the dose-response relation. A high value points to weaker potency. The compound `O=C1c2ccccc2S(=O)(=O)N1C[C@@H]1C[C@@H]1CN1CCN(c2ncccn2)CC1` had a Ki in test [1] of 43.7 nM. The compound also gave an ED50 in the test on Mus musculus [2] greater than 0.055 µmol/kg.
The compound `O=C1c2ccccc2S(=O)(=O)N1C[C@H]1C[C@@H]1CN1CCN(c2ncccn2)CC1` came in with a Ki in test [1] of 8.7 nM. The ED50 is 0.19 µmol/kg in the test on Mus musculus [3] and 0.0032 µmol/kg in the test on Mus musculus [4].
In test [1], `O=C1c2ccccc2S(=O)(=O)N1CCCCN1CCN(c2ncccn2)CC1` [IPSAPIRONE] returned a Ki of 12.1 nM. Besides, the values for the ED50 in the test with Mus musculus [5] and in the test with Mus musculus [6] were 0.00527 µmol/kg and 0.23 µmol/kg, respectively.
